According to patent publication US8404643B2, “Metastin derivatives and use thereof” (priority 2005, dated 2013):
Square brackets hold non-standard residues; d marks the D form. Peptide text beside a SMILES is read from it. Phe(3-F) = N[C@@H](Cc1cccc(F)c1)C(=O)O; Phe(4-F) = N[C@@H](Cc1ccc(F)cc1)C(=O)O; Phe(2-F) = N[C@@H](Cc1ccccc1F)C(=O)O; Arg(Me) = CNC(=N)NCCC[C@H](N)C(=O)O; Dap(CONH2) = NC(=O)NC[C@H](N)C(=O)O; Hyp = O=C(O)[C@@H]1C[C@@H](O)CN1; Nva = CCC[C@H](N)C(=O)O; azaGly = NNC(=O)O

Each compound was assayed against T1, hOT7T175 (Homo sapiens, UniProt Q969F8) (assay: Assay for intracellular Ca ion level-increasing activity using FLIPR). Settings: hOT7T175/CHO cells, relative to Metastin (1-54).
T1 construct: expressed in transfected cells
Format: cell-based
Method in brief: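 CHO/dhfr− cells stably transfected with hOT7T175, selected for high metastin response, loaded with Fluo3-AM for 1 h at 37 °C in HANKS/HBSS (pH 7.4) with probenecid. Peptides were diluted from 1×10^−3 M DMSO stock into HANKS/HBSS with 2.5 mM probenecid, 0.2% BSA, 0.1% CHAPS; intracellular Ca rise read by FLIPR.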

T1 sequence (Q969F8 whole entry L364H): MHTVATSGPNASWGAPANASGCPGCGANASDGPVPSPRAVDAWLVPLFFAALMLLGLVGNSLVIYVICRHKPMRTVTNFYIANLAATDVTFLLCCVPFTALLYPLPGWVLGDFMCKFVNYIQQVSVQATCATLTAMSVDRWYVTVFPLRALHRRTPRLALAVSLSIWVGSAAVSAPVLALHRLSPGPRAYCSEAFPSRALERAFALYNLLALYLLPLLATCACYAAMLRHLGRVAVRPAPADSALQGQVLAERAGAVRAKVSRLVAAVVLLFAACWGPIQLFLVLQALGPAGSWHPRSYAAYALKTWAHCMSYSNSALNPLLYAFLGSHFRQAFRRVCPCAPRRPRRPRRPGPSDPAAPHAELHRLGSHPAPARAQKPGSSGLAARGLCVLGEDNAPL

Point of comparison: CNC(=N)NCCC[C@H](NC(=O)[C@H](CC(C)C)NC(=O)NNC(=O)[C@H](Cc1ccccc1F)NC(=O)[C@@H](NC(=O)[C@H](CC(N)=O)NC(=O)CNC(=O)[C@@H](Cc1ccc(O)cc1)NC(C)=O)[C@@H](C)O)C(=O)N[C@@H](Cc1c[nH]c2ccccc12)C(N)=O [Compound No. 783, Ac-D-Tyr-Gly-Asn-Thr-Phe(2F)-AzaGly-Leu-Arg(Me)-Trp-NH2] (Ac-[dY]GNT[Phe(2-F)][azaGly]L[Arg(Me)]W-NH2), “Specific Activity: intracellular Ca ion level-increasing activity [specific activity to Metastin (1-54)]” value 8.8. Against it:
- CNC(=N)NCCC[C@H](NC(=O)[C@H](CC(C)C)NC(=O)NNC(=O)[C@H](Cc1ccccc1)NC(=O)[C@@H](NC(=O)[C@H](CC(N)=O)NC(C)=O)[C@@H](C)O)C(=O)N[C@@H](Cc1c[nH]c2ccccc12)C(N)=O [Compound No. 709, Ac-Asn-Thr-Phe-AzaGly-Leu-Arg(Me)-Trp-NH2] (Ac-NTF[azaGly]L[Arg(Me)]W-NH2) — higher, 9.8
- CNC(=N)NCCC[C@H](NC(=O)[C@H](CC(C)C)NC(=O)NNC(=O)[C@H](Cc1ccccc1)NC(=O)c1ccc(NC(N)=O)cc1)C(=O)N[C@@H](Cc1c[nH]c2ccccc12)C(N)=O [Compound No. 860, 4-Ureidobenzoyl-Phe-AzaGly-Leu-Arg(Me)-Trp-NH2] — lower, 1.3
- CNC(=N)NCCC[C@H](NC(=O)[C@H](CC(C)C)NC(=O)NNC(=O)[C@H](Cc1ccc(F)cc1)NC(=O)[C@@H](NC(=O)[C@H](CC(N)=O)NC(=O)CNC(=O)[C@@H](Cc1ccc(O)cc1)NC(C)=O)[C@@H](C)O)C(=O)N[C@@H](Cc1c[nH]c2ccccc12)C(N)=O [Compound No. 790, Ac-D-Tyr-Gly-Asn-Thr-Phe(4F)-AzaGly-Leu-Arg(Me)-Trp-NH2] (Ac-[dY]GNT[Phe(4-F)][azaGly]L[Arg(Me)]W-NH2) — lower, 2.3
- CNC(=N)NCCC[C@H](NC(=O)[C@H](CC(C)C)NC(=O)NNC(=O)[C@H](Cc1cccc(F)c1)NC(=O)[C@@H](NC(=O)[C@H](CC(N)=O)NC(=O)[C@H](CCCCN)NC(=O)[C@@H](Cc1ccc(O)cc1)NC(C)=O)[C@@H](C)O)C(=O)N[C@@H](Cc1c[nH]c2ccccc12)C(N)=O [Compound No. 756, Ac-D-Tyr-Lys-Asn-Thr-Phe(3F)-AzaGly-Leu-Arg(Me)-Trp-NH2] (Ac-[dY]KNT[Phe(3-F)][azaGly]L[Arg(Me)]W-NH2) — lower, 2.4
- CCC[C@H](NC(=O)[C@@H]1C[C@@H](O)CN1C(=O)[C@@H](Cc1ccc(O)cc1)NC(C)=O)C(=O)N[C@H](C(=O)N[C@@H](Cc1ccccc1)C(=O)NNC(=O)N[C@@H](CC(C)C)C(=O)N[C@@H](CCCNC(=N)NC)C(=O)N[C@@H](Cc1c[nH]c2ccccc12)C(N)=O)[C@@H](C)O [Compound No. 886, Ac-D-Tyr-Hyp-Nva-Thr-Phe-AzaGly-Leu-Arg(Me)-Trp-NH2] (Ac-[dY][Hyp][Nva]TF[azaGly]L[Arg(Me)]W-NH2) — lower, 1.2
- CNC(=N)NCCC[C@H](NC(=O)[C@H](CC(C)C)NC(=O)NNC(=O)[C@H](Cc1ccccc1)NC(=O)[C@@H](NC(=O)[C@H](CCC(N)=O)NC(=O)[C@@H]1C[C@@H](O)CN1C(=O)[C@@H](Cc1ccc(O)cc1)NC(C)=O)[C@@H](C)O)C(=O)N[C@@H](Cc1c[nH]c2ccccc12)C(N)=O [Compound No. 843, Ac-D-Tyr-Hyp-Gln-Thr-Phe-AzaGly-Leu-Arg(Me)-Trp-NH2] (Ac-[dY][Hyp]QTF[azaGly]L[Arg(Me)]W-NH2) — lower, 0.8
- CNC(=N)NCCC[C@H](NC(=O)[C@H](CC(C)C)NC(=O)NNC(=O)[C@H](Cc1ccccc1)NC(=O)[C@@H](NC(=O)[C@H](CNC(N)=O)NC(=O)[C@@H]1C[C@@H](O)CN1C(=O)[C@@H](Cc1ccc(O)cc1)NC(C)=O)[C@@H](C)O)C(=O)N[C@@H](Cc1c[nH]c2ccccc12)C(N)=O [Compound No. 800, Ac-D-Tyr-Hyp-Alb-Thr-Phe-AzaGly-Leu-Arg(Me)-Trp-NH2] (Ac-[dY][Hyp][Dap(CONH2)]TF[azaGly]L[Arg(Me)]W-NH2) — lower, 0.8
